Experimental findings from ChEMBL document CHEMBL1201862, “PubChem BioAssay data set” (2004) are described below.

What all share (experiment): NCI anticancer screen, dose series, 48 h
The subject of experiment [1] is BT-549.
In experiment [2] the test system is CCRF-CEM.
The test system of experiment [3] is HCT-15.
Experiment [4] has as its system HL-60.
Experiment [5] relates to IGROV-1.
Experiment [6] relates to LOX IMVI.
In experiment [7] the test system is MCF7.
Experiment [8] deals with MDA-MB-231.
In experiment [9] the test system is MDA-MB-435.
The subject of experiment [10] is MDA-N.
Experiment [11] has as its system Malme-3M.
Experiment [12] has as its system NCI-H23.
Experiment [13] deals with NCI-H460.
Experiment [14] relates to OVCAR-5.
Experiment [15] has as its system SF-295.
Experiment [16] relates to SF-539.
For experiment [17], the system named is SK-MEL-5.
Experiment [18] deals with SK-OV-3.
Experiment [19] relates to T47D.
In experiment [20] the test system is TK-10.

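Tested at 5 concentrations; 48 h exposure; 96-well plates; endpoints linearly interpolated, else capped at highest concentration. GI50 marks 50% less growth.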 Activity calls are given as the source filed them. Rule as the data show it: active = GI50 up to about 1.1 µM and inactive = higher.

On to `c1ccc2nc3c(nc2c1)sc1nc2ccccc2n13`, for which the GI50 in experiment [1] is > 100 µM (inactive); in [2], > 100 µM (inactive); in [3] it was over 100 µM; in [4] it was > 100 µM (inactive); in experiment [5], > 100 µM (inactive); in experiment [6], > 100 µM (inactive). The GI50 in experiment [7] was 0.933 µM (active); in experiment [8], > 100 µM (inactive); in [9], > 100 µM (inactive); in experiment [10] it was > 100 µM (inactive); in [11] it was > 100 µM (inactive); in experiment [12], > 100 µM (inactive). In addition, the GI50 was > 100 µM (inactive) in [13]; > 100 µM (inactive) in experiment [14]; 45 µM (inactive) in [15]; > 100 µM (inactive) in experiment [16]; > 100 µM (inactive) in [17]; > 100 µM (inactive) in [18]. Moreover, the values for the GI50 in experiment [19] and in experiment [20] were 8 µM (inactive) and > 100 µM (inactive), respectively.
As for `O=C(NNc1ccccc1)c1ccc(Cl)c(Cl)c1`, the GI50 in experiment [1] was 6.81 µM (inactive); in experiment [2], 1.12 µM (inactive); in experiment [3] it was 15.5 µM; in [4], 0.0569 µM (active); in [5] it was 13.2 µM (inactive); in [6] it was 0.0438 µM (active). For the same compound, the GI50 in experiment [7] was 0.585 µM (active); in [8] it was 35.6 µM (inactive); in experiment [9], 0.206 µM (active); in experiment [10], 0.122 µM (active); in experiment [11], 18.6 µM (inactive); in experiment [12], 34.4 µM (inactive). Also, the GI50 in [13] is 0.219 µM (active); in experiment [14], 57 µM (inactive); in [15] it was 0.0676 µM (active); in experiment [16], 0.0718 µM (active); in experiment [17], 1.3 µM (inactive); in experiment [18], 21.1 µM (inactive). The GI50 in experiment [19] is 0.918 µM (active); in experiment [20] it was 20.7 µM (inactive).
`c1ccc(C2C(=P(c3ccccc3)(c3ccccc3)c3ccccc3)P=PC2[P+](c2ccccc2)(c2ccccc2)c2ccccc2)cc1.c1ccc([B-](c2ccccc2)(c2ccccc2)c2ccccc2)cc1` (stereo not given): the GI50 in [1] was 0.721 µM (active); in [2], 2.25 µM (inactive); in experiment [3], 28.1 µM; in experiment [4], 0.107 µM (active); in [5], 0.57 µM (active); in experiment [6], 0.333 µM (active). Further, the GI50 is 0.543 µM (active) in experiment [7]; 0.39 µM (active) in experiment [8]; 0.171 µM (active) in experiment [9]; 0.139 µM (active) in experiment [10]; 1.78 µM (inactive) in experiment [11]; 0.351 µM (active) in [12]. Further, the GI50 in experiment [13] is 0.447 µM (active); in [14], 2.97 µM (inactive); in experiment [15], 0.492 µM (active); in experiment [16], 0.656 µM (active); in [17], 0.191 µM (active); in experiment [18] it was 1.85 µM (inactive). In addition, the GI50 was 0.191 µM (active) in experiment [19] and 0.762 µM (active) in experiment [20].
As for `O=C1c2cc([N+](=O)[O-])sc2C(=O)c2cc([N+](=O)[O-])sc21`, the GI50 in [1] was 2.05 µM (inactive); in experiment [2] it was 0.711 µM (active); in [3], 1.73 µM; in experiment [4] it was 0.0957 µM (active); in experiment [5], 1.56 µM (inactive); in [6], 1.36 µM (inactive). The GI50 in experiment [7] is 2.58 µM (inactive); in experiment [8], 2.07 µM (inactive); in experiment [9], 2.1 µM (inactive); in [10] it was 2.34 µM (inactive); in experiment [11] it was 0.34 µM (active); in experiment [12], 5.26 µM (inactive). Also, the GI50 in experiment [13] is 19.4 µM (inactive); in experiment [14], 7.11 µM (inactive); in experiment [15], 8.2 µM (inactive); in experiment [16] it was 3.2 µM (inactive); in experiment [17], 2.51 µM (inactive); in [18], 10.1 µM (inactive). The GI50 in experiment [19] was 3.55 µM (inactive); in experiment [20] it was 5.89 µM (inactive).
On to `CCOC(=O)C1(C/C=C/CBr)Cc2ccccc2C1=O` (stereo not given), for which the GI50 is 2.95 µM (inactive) in [1]; 0.796 µM (active) in experiment [2]; 2.24 µM in [3]; 3.21 µM (inactive) in experiment [4]; 2.7 µM (inactive) in [5]; 1.6 µM (inactive) in [6]. Further, the GI50 is 2.48 µM (inactive) in experiment [7]; 4.7 µM (inactive) in experiment [8]; 1.72 µM (inactive) in experiment [9]; 2.2 µM (inactive) in experiment [10]; 2.76 µM (inactive) in [11]; 2.02 µM (inactive) in [12]. For the same compound, the GI50 in experiment [13] was 1.75 µM (inactive); in experiment [14] it was 3.02 µM (inactive); in [15] it was 8.57 µM (inactive); in experiment [16], 1.81 µM (inactive); in experiment [17], 2.67 µM (inactive); in experiment [18], 8.69 µM (inactive). Moreover, the GI50 in [19] is 1.98 µM (inactive); in experiment [20], 2.77 µM (inactive).
In the case of `COC(=O)CNC(=O)C(Cc1ccccc1)NC(=O)c1ccc(-c2ccc(Cl)cc2Cl)o1` (stereo not given), the GI50 was 26.4 µM (inactive) in experiment [1]; 10.1 µM (inactive) in [2]; 23.3 µM in experiment [3]; 12.2 µM (inactive) in experiment [4]; 18.7 µM (inactive) in experiment [5]; 23.5 µM (inactive) in experiment [6]. Moreover, the GI50 in [7] was 17.8 µM (inactive); in [8] it was 19 µM (inactive); in experiment [9] it was 26.9 µM (inactive); in experiment [10], 24.8 µM (inactive); in [11], 21.5 µM (inactive); in [12], 23.7 µM (inactive). In addition, the GI50 in experiment [13] was 15.2 µM (inactive); in [14], 28.4 µM (inactive); in experiment [15], 18.7 µM (inactive); in experiment [16], 36.3 µM (inactive); in [17], 31.6 µM (inactive); in experiment [18], 24.9 µM (inactive). Besides, the figures for the GI50 in experiment [19] and in experiment [20] were 20.7 µM (inactive) and 24.7 µM (inactive), respectively.
As to `O=C(Nc1ccc(Cl)c(C(F)(F)F)c1)C(=O)c1c(O)c2ccccc2oc1=O`, the GI50 is > 100 µM (inactive) in experiment [1]; > 100 µM (inactive) in [2]; over 100 µM in experiment [3]; > 10 µM (inactive) in experiment [4]; > 100 µM (inactive) in experiment [5]; > 100 µM (inactive) in [6]. Besides, the GI50 in experiment [7], in [8], in experiment [9], in experiment [10], in [11] and in [12] was > 100 µM (inactive) in each case. Also, the GI50 in experiment [13], in experiment [14], in experiment [15], in [16], in experiment [17] and in experiment [18] was > 100 µM (inactive) each time. Moreover, the GI50 in [19] and in experiment [20] was > 100 µM (inactive) throughout.
As for `CC[C@@]1(O)C(=O)OCc2c1cc1n(c2=O)Cc2c-1nc1ccccc1c2/C=N\NC(=O)C(N)=O`, the GI50 in experiment [1] was 3.44 µM (inactive); in experiment [2], < 0.01 µM (active); in experiment [3] it was 14.7 µM; in experiment [4], 0.0582 µM (active); in [5] it was 4.79 µM (inactive); in experiment [6], 0.0389 µM (active). Besides, the GI50 in experiment [7] is 0.0189 µM (active); in [8], 31.8 µM (inactive); in experiment [9], 2.32 µM (inactive); in [10] it was 5.61 µM (inactive); in [11], 7.06 µM (inactive); in experiment [12], 0.0543 µM (active). In addition, the GI50 is 0.0559 µM (active) in experiment [13]; 25.8 µM (inactive) in experiment [14]; 0.151 µM (active) in experiment [15]; 0.0217 µM (active) in experiment [16]; 0.222 µM (active) in experiment [17]; 0.467 µM (active) in experiment [18]. In addition, the GI50 was < 0.01 µM (active) in experiment [19] and 43.6 µM (inactive) in experiment [20].
As for `CCOC(=O)C1(Cc2ccccc2)Cc2cc3c(cc2C1=O)CCC3` (stereo not given), the GI50 in experiment [1] is > 100 µM (inactive); in experiment [2], > 100 µM (inactive); in experiment [3], over 100 µM; in experiment [4], > 100 µM (inactive); in [5], > 100 µM (inactive); in [6] it was > 100 µM (inactive). Also, the GI50 in [7], in experiment [8], in experiment [9], in experiment [10], in experiment [11] and in experiment [12] was > 100 µM (inactive) throughout. In addition, the GI50 in experiment [13], in experiment [14], in [15], in experiment [16], in experiment [17] and in [18] was > 100 µM (inactive) in each case. Further, the GI50 in experiment [19] and in experiment [20] was > 100 µM (inactive) each time.
`Fc1cccc(F)c1C1SCc2nc3cc(Cl)ccc3n21` (stereo not given): the GI50 in experiment [1] is 21.9 µM (inactive); in experiment [2], 25.6 µM (inactive); in [3], 28.6 µM; in [4], 14 µM (inactive); in experiment [5], > 42.9 µM (inactive); in experiment [6] it was 18.5 µM (inactive). Besides, the GI50 in experiment [7] was 15 µM (inactive); in experiment [8] it was 55.1 µM (inactive); in experiment [9] it was 33 µM (inactive); in experiment [10], 32.8 µM (inactive); in experiment [11], 17 µM (inactive); in experiment [12], 28.5 µM (inactive). Moreover, the GI50 was 41.5 µM (inactive) in experiment [13]; 84.1 µM (inactive) in experiment [14]; 33.2 µM (inactive) in experiment [15]; 80.9 µM (inactive) in [16]; 16 µM (inactive) in [17]; 80.2 µM (inactive) in experiment [18]. Also, the GI50 in experiment [19] was 31.2 µM (inactive); in experiment [20], > 100 µM (inactive).
